{"source": "patent US20020026053A1", "about": "“Novel 3-(substituted) -2- indolinones compounds and use thereof as inhibitors of protein kinase activity” (priority 1997, published 2002)", "target": "T1, EGFR (Homo sapiens, UniProt P00533)", "T1 construct": "endogenous in cells; host or cells: A431 cells (lysate, captured with SUMO1 anti-EGFR antibody)", "T1 sequence (P00533 25-1210)": "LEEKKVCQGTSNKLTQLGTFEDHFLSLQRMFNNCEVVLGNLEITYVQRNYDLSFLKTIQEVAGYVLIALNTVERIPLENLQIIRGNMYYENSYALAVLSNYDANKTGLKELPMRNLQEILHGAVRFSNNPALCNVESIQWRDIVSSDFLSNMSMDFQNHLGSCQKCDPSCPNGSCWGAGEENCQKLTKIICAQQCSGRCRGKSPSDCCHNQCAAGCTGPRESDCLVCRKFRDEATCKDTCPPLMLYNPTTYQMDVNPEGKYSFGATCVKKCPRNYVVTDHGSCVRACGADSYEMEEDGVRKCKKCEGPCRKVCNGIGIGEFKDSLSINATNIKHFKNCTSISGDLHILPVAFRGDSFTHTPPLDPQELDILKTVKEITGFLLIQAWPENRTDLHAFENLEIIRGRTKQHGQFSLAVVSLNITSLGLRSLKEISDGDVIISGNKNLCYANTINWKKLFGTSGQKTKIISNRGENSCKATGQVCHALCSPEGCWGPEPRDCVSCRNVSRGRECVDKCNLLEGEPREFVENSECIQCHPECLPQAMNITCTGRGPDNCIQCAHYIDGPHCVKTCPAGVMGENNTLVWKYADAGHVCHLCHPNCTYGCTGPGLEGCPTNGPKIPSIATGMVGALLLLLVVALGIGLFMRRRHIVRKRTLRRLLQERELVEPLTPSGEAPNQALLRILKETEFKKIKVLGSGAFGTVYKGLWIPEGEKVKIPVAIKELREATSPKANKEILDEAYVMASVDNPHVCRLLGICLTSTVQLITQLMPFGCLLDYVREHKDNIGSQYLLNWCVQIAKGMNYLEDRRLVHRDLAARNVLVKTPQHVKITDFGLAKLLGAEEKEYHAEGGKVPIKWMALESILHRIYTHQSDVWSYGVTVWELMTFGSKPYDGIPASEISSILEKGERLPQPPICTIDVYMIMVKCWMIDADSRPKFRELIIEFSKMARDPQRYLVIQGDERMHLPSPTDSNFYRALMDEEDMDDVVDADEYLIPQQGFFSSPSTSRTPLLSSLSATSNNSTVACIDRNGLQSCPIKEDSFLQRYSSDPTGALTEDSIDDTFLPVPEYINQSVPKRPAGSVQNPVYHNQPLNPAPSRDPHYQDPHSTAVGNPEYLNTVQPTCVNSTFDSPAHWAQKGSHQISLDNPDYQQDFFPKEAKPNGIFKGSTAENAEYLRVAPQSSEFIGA", "assay": "Biochemical EGFR Assay", "set-up": "concentration or dose not given beside the values", "protocol": "This assay measures the in vitro kinase activity of EGFR using ELISA.\n1. Corning 96-well Elisa plates (Corning Catalog No. 25805-96).\n2. SUMO1 monoclonal anti-EGFR antibody (Biochemistry Lab, SUGEN, Inc.).\n3. PBS (Dulbecco's Phosphate-Buffered Saline, Gibco Catalog No. 450-1300EB).\n6. A431 cell lysate (Screening Lab, SUGEN, Inc.)\n9. Adenosine-5′-triphosphate (ATP, from Equine muscle, Sigma Cat. No. A-5394).\nPrepare a 1.0 mM solution in dH2O. This reagent should be made up immediately prior to use and kept on ice.\nPrepare a 1.0 M stock solution in dH2O.\n11. ATP/MnCl2 phosphorylation mix\nThis reagent should be prepared immediately before use and kept on ice\n12. NUNC 96-well V bottom polypropylene plates (Applied Scientific Cat. No. AS-72092).\n13. Ethylenediaminetetraacetic acid (EDTA)\nPrepare 200 mM working solution in dH2O. Adjust to pH 8.0 with 10 N NaOH.\n14. Rabbit polyclonal anti-phosphotyrosine serum (Biochemistry Lab, SUGEN, Inc.)\n15. Goat anti-rabbit IgG peroxidase conjugate (Biosource Cat. No. ALI0404)\n16. ABTS (2,2′-azino-bis(3-ethylbenzthiazoline-6-sulfonic acid), Sigma Cat. No. A-1888).\nMix first two ingredients in about 900 ml dH2O, adjust pH to 4.0 with phosphoric acid. Add ABTS, cover, let sit about 0.5 hr., filter. The solution should be kept in the dark at 4° C. until ready to use.\n17. Hydrogen peroxide 30% solution (Fisher Cat. No. H325)\nMix 15 ml ABTS solution and 2.0 μl H2O2. Prepare 5 minutes before use.\n1. Coat Corning 96 well ELISA plates with 0.5 μg SUMO1 in 100 μl PBS per well, store overnight at 4° C.\n2. Remove unbound SUMO1 from wells by inverting plate to remove liquid. Wash 1× with dH2O. Pat the plate on a paper towel to remove excess liquid.\n3. Add 150 μl of Blocking Buffer to each well. Incubate for 30 min. at room temperature with shaking.\n4. Wash plate 3× with deionized water, then once with TBST. Pat plate on a paper towel to remove excess liquid and bubbles.\n5. Dilute lysate in PBS (7 μg lysate/100 μl PBS)\n6. Add 100 μl of diluted lysate to each well. Shake at room temperature for 60 min.\n7. Wash plates as described in 4, above.\n8. Add 120 μl TBS to ELISA plate containing captured EGFR.\n9. Dilute test compound 1:10 in TBS in 96-well polypropylene plates (ie. 10 μl compound+90 μl TBS).\n10. Add 13.5 μl diluted test compound to ELISA plate.\n11. Incubate for 30 minutes while shaking at room temperature.\n13. After 5 minutes, stop reaction by adding 16.5 μl of 200 mM EDTA (pH 8.0) to each well, shaking continuously. After the EDTA has been added, shake for 1 min.\n14. Wash 4× with deionized water, twice with TBST.\n15. Add 100 μl anti-phosphotyrosine (1:3000 dilution in TBST) per well. Incubate 30-45 min. at room temperature, with shaking.\n16. Wash as described in 4, above.\n17. Add 100 μl Biosource Goat anti-rabbit IgG peroxidase conjugate (1:2000 dilution in TBST) to each well. Incubate 30 min. at room temperature, with shaking.\n18. Wash as described in 4, above.\n19. Add 100 μl of ABTS/H2O2 solution to each well.\n20. Incubate 5 to 10 minutes with shaking. Remove any bubbles.\n21. If necessary stop reaction with the addition of 100 μl 0.2 M HCl per well.\n22. Read assay on Dynatech MR7000 ELISA reader. Test Filter: 410 nM Reference Filter: 630 nM", "data": [{"smiles": "Cc1c(Br)cc(Br)c2c1C(=C1C(=O)N(C)c3ccccc31)C(=O)N2", "note": "[10731/H10]", "values": [{"measurement": "Biochem EGFR % Inhibition (P.167)", "value": 3.5, "unit": "%"}]}, {"smiles": "Cc1c(Br)cc(Br)c2c1C(=CC(c1cccs1)C(F)(F)F)C(=O)N2", "note": "(stereo not drawn) [10732/H02]", "values": [{"measurement": "Biochem EGFR % Inhibition (P.167)", "value": 13.0, "unit": "%"}]}, {"smiles": "COc1c(C(C)C)cc(C=C2C(=O)Nc3c(Br)cc(Br)c(C)c32)cc1C(C)C", "note": "[10732/H03]", "values": [{"measurement": "Biochem EGFR % Inhibition (P.167)", "value": 1.4, "unit": "%"}]}, {"smiles": "Cc1c(Br)cc(Br)c2c1C(=Cc1cc(C(C)C)c(Oc3ccccc3)c(C(C)C)c1)C(=O)N2", "note": "[10732/H04]", "values": [{"measurement": "Biochem EGFR % Inhibition (P.167)", "value": "−0.7", "unit": "%"}]}, {"smiles": "COc1ccc(C=C2C(=O)Nc3c(Br)cc(Br)c(C)c32)cc1C(C)(C)C", "note": "[10732/H05]", "values": [{"measurement": "Biochem EGFR % Inhibition (P.167)", "value": "−2.9", "unit": "%"}]}, {"smiles": "Cc1c(Br)cc(Br)c2c1C(=Cc1ccc(OCc3ccccc3)c(C(C)(C)C)c1)C(=O)N2", "note": "[10732/H06]", "values": [{"measurement": "Biochem EGFR % Inhibition (P.167)", "value": "−6.9", "unit": "%"}]}, {"smiles": "COc1c(Br)cc(C=C2C(=O)Nc3c(Br)cc(Br)c(C)c32)cc1C(C)(C)C", "note": "[10732/H07]", "values": [{"measurement": "Biochem EGFR % Inhibition (P.167)", "value": "−15.3", "unit": "%"}]}, {"smiles": "Cc1c(Br)cc(Br)c2c1C(=Cc1cc(Br)c(OCc3ccccc3)c(C(C)(C)C)c1)C(=O)N2", "note": "[10732/H08]", "values": [{"measurement": "Biochem EGFR % Inhibition (P.167)", "value": "−14.0", "unit": "%"}]}, {"smiles": "COc1c(Cl)cc(C=C2C(=O)Nc3c(Br)cc(Br)c(C)c32)cc1C(C)(C)C", "note": "[10732/H09]", "values": [{"measurement": "Biochem EGFR % Inhibition (P.167)", "value": "−7.4", "unit": "%"}]}, {"smiles": "Cc1c(Br)cc(Br)c2c1C(=Cc1cc(Cl)c(OCc3ccccc3)c(C(C)(C)C)c1)C(=O)N2", "note": "[10732/H10]", "values": [{"measurement": "Biochem EGFR % Inhibition (P.167)", "value": "−21.3", "unit": "%"}]}, {"smiles": "COc1c(I)cc(C=C2C(=O)Nc3c(Br)cc(Br)c(C)c32)cc1C(C)(C)C", "note": "[10732/H11]", "values": [{"measurement": "Biochem EGFR % Inhibition (P.167)", "value": "−15.1", "unit": "%"}]}, {"smiles": "Cc1c(Br)cc(Br)c2c1C(=Cc1cc(I)c(OCc3ccccc3)c(C(C)(C)C)c1)C(=O)N2", "note": "[10733/H02]", "values": [{"measurement": "Biochem EGFR % Inhibition (P.167)", "value": 3.2, "unit": "%"}]}, {"smiles": "COc1c([N+](=O)[O-])cc(C=C2C(=O)Nc3c(Br)cc(Br)c(C)c32)cc1C(C)(C)C", "note": "[10733/H03]", "values": [{"measurement": "Biochem EGFR % Inhibition (P.167)", "value": "−16.5", "unit": "%"}]}, {"smiles": "COc1c(C(C)(C)C)cc(C=C2C(=O)Nc3c(Br)cc(Br)c(C)c32)cc1C(C)(C)C", "note": "[10733/H04]", "values": [{"measurement": "Biochem EGFR % Inhibition (P.167)", "value": "−24.0", "unit": "%"}]}, {"smiles": "Cc1c(Br)cc(Br)c2c1C(=Cc1cc(C(C)(C)C)c(OCc3ccccc3)c(C(C)(C)C)c1)C(=O)N2", "note": "[10733/H05]", "values": [{"measurement": "Biochem EGFR % Inhibition (P.167)", "value": 15.9, "unit": "%"}]}, {"smiles": "COc1c(C)cc(C=C2C(=O)Nc3c(Br)cc(Br)c(C)c32)cc1C", "note": "[10733/H06]", "values": [{"measurement": "Biochem EGFR % Inhibition (P.167)", "value": "−10.5", "unit": "%"}]}, {"smiles": "Cc1cc(C=C2C(=O)Nc3c(Br)cc(Br)c(C)c32)cc(C)c1OCc1ccccc1", "note": "[10733/H07]", "values": [{"measurement": "Biochem EGFR % Inhibition (P.167)", "value": "−6.2", "unit": "%"}]}, {"smiles": "COc1cc(Br)cc(C=C2C(=O)Nc3c(Br)cc(Br)c(C)c32)c1O", "note": "[10733/H08]", "values": [{"measurement": "Biochem EGFR % Inhibition (P.167)", "value": 0.3, "unit": "%"}]}, {"smiles": "Cc1c(Br)cc(Br)c2c1C(=Cc1cc(Br)ccc1O)C(=O)N2", "note": "[10733/H09]", "values": [{"measurement": "Biochem EGFR % Inhibition (P.167)", "value": "−3.1", "unit": "%"}]}, {"smiles": "Cc1c(Br)cc(Br)c2c1C(=Cc1cc([N+](=O)[O-])ccc1O)C(=O)N2", "note": "[10733/H10]", "values": [{"measurement": "Biochem EGFR % Inhibition (P.167)", "value": "−3.1", "unit": "%"}]}, {"smiles": "COc1c(O)ccc(C=C2C(=O)Nc3c(Br)cc(Br)c(C)c32)c1[N+](=O)[O-]", "note": "[10733/H11]", "values": [{"measurement": "Biochem EGFR % Inhibition (P.167)", "value": 7.0, "unit": "%"}]}]}
